Tests used:
[1] = system: person having subjective symptoms of dry eye; experiment: Instillation of FK506 eye drop in a person with subjective symptoms of dry eye; format: in vivo, human; details: 0.06% eye drop (suspension), twice a day for two weeks, one patient
Text: Using FK506 as the active ingredient in the present invention, a 0.06% eye drop (suspension) having the following formulation was used as a test drug. A suspension having the following formulation was produced in the same manner as in EP-A-0406791 (Example 6). [table]

healthy subjects = experiment: Tear film breakup time (BUT) after instillation in healthy subjects; format: in vivo, human; details: instilled four times a day for 7 days, healthy subjects (6 per group), right eye, difference between before and 8 days after instillation
Description: A suspension having the same formulation as in Example 1 was produced using FK506 as the active ingredient to give a 0.01% FK506 eye drop (suspension) and 0.1% FK506 eye drop (suspension) as test drugs. The base for the eye drops was used as the control drug. The above-mentioned test drugs and the control drug were instilled four times a day for 7 days to 18 healthy subjects (6 per group) at 8:00, 11:00, 14:00 and 17:00. The tear film breakup time (sec) of the right eye was measured before instillation and 8 days after instillation. The difference between before and after the instillation was calculated, and taken as the mean variation of the tear film breakup time. The tear film breakup time was measured according to the conventional method. After instillation of fluorescein, the tear film was formed on the surface of the eye by nictitation.

What does the source list for `C=CC[C@@H]1/C=C(\C)C[C@H](C)C[C@H](OC)[C@H]2O[C@@](O)(C(=O)C(=O)N3CCCC[C@H]3C(=O)O[C@H](/C(C)=C/[C@@H]3CC[C@@H](O)[C@H](OC)C3)[C@H](C)[C@@H](O)CC1=O)[C@H](C)C[C@@H]2OC` [FK506, 17-allyl-1,14-dihydroxy-12-[2-(4-hydroxy-3-methoxycyclohexyl)-1-methylvinyl]-23,25-dimethoxy-13,19,21,27-tetramethyl-11,28-dioxa-4-azatricyclo-[22.3 .1.0^4,9]octacos-18-ene-2,3,10,16-tetraone]?
subjective symptoms of dry eye (sense of dryness, foreign body and grittiness) [1]: the subjective symptoms disappeared; Mean variation of tear film breakup time (healthy subjects; 0.01% FK506 eye drop (suspension)): +0.58 sec; Mean variation of tear film breakup time (healthy subjects; 0.1% FK506 eye drop (suspension)): +0.75 sec

From patent US7063857B1, “Use of macrolide compounds for the treatment of dry eye” (Sucampo AG, priority 1999, dated 2006)
